Literature values as cited in patent EP1928431B1, “CONTROLLED RELEASE PHARMACEUTICAL COMPOSITION CONTAINING CARVEDILOL” (Egis Gyógyszergyár Nyilvánosan Múködö Részvénytársaság, priority 2005, dated 2007).
Values after ≈ are worked out from the molar mass of the structure shown. Read-outs that look alike come from different tables or passages of the source.

Key:
[1] = orally administered and absorbed taken as 100%
[2] = WO01/35958
[3] = in water

## COc1ccccc1OCCNCC(O)COc1cccc2[nH]c3ccccc3c12 (stereo not drawn) [carvedilol, 1-[9'H-carbazol-4'-yloxy]-3-[{2"-(2""-<methoxy>-phenoxy)-ethyl}-amino]-propan-2-ol]
[1]; administered in ileum
  absorption: 28%
[1]; administered in the colon
  absorption: 7%
[1]; administered in the jejunum
  absorption: 56%
[2]
  solubility in water: 0.01 mg/mL (≈ 24.6 µM)
[3]; pH 1
  solubility: 1 mg/mL (≈ 2460 µM)
[3]; pH 8
  solubility: 0.01 mg/mL (≈ 24.6 µM)
